Patent US20100278787A1, “CARDIOMYOCYTE-LIKE CELL CLUSTERS DERIVED FROM HBS CELLS” (Cellartis AB, priority 2007, published 2010)

How the values were obtained:
[1] = system: contracting clusters of cells; assay: Functional receptors: contractile activity of contracting areas after pharmacological agents (method of Norström et al. 2006); assay type: cell-based, human; settings: agents administered to contracting areas; method and Table 1 of Norström et al. 2006
CMLC clusters = assay: Transmembrane action potential (TAP) microelectrode recordings in beating CMLC; assay type: cell-based, human
Experimental: Transmembrane action potentials (TAP) were recorded by using a microelectrode filled with 3 M KCl (resistance 10 to 20 MΩ) connected via an Ag/AgCl junction to a high impedance amplifier (Intracellular Electrometer IE-210, Warner Instrument Corporation). Sharp microelectrodes were prepared using a glass, and a micromanipulator was used to lower the electrode into the bath and enter the cluster. The same impalement was kept for as long as possible. […] Steady-state recordings of action potentials at spontaneous frequency or during electric stimulation of 1-4 Hz were made. All calculations were made on the average of 10 (consecutive) action potentials. The bath was continuously perfused with Tyrode's solution consisting of (in mmol/L) 130 NaCl, 4 KCl, 0.5 MgSO4.7H20, 1.8 NaH2PO4xH2O, 18 NaHCO3, 5.5 glucose, 1.8 CaCl2 and kept at 37° C.
Electrical stimulation of the CMLC was done using field stimulation by means of a mobile electrode.
Change in APD was calculated and used to determine prolongation and assess triangularization.
To investigate the role of the funny current (If) in spontaneously contracting CMLC, 10 μM zatebradine was administered.

hBS cells (SA002) = assay: Yield of beating CMLC from differentiating hBS cells, counted visually; assay type: cell-based, human; settings: for Yield of beating CMLC compared to control cultures not receiving additional factors: 5 μM pre-plating in addition to Activin A 10 ng/ml and bFGF 12 ng/ml, day 7 after plating
Experimental: Spontaneously contracting cells were derived from undifferentiated hBS cells cultured on MEF cells (Heins et al 2004 Stem Cells). The cell lines used for this experiment could be the hBS cell line SA002, SA121, SA001, SA002.5, SA461 (Cellartis AB, Goteborg, Sweden, http://www.cellartis.com) and they can be propagated as described Heins et al. 2004. These cell lines are listed in the NIH stem cell registry and the UK Stem Cell bank. The hBS cells were detached from the feeder layer by incubation with collagenase IV (200 U/ml), for 10-15 minutes at 37° C. The cell suspension was transferred to a 15 ml tube, and after the cells had sedimented, the supernatant was removed. The colonies were resuspended in Knock Out DMEM supplemented with 20% FBS, 1% penicillin-streptomycin, 1% Glutamax, 0.5 mmol/l β-mercaptoethanol and 1% non-essential amino acids (all from Invitrogen, Carlsbad, Calif.) and dissociated mechanically into small aggregates of undifferentiated cells (0.2-0.4 mm) using a pipette. This cell suspension was distributed (200 μl/well) into a 96-well v-bottom plate (Corning Incorporated, NY, USA) at a concentration of approximately 4-6 colonies per well and centrifuged for 5 min at 400×g. The plate was then incubated at 37° C. for 3-8 days. The 3D structures that formed were then transferred to gelatine coated dishes containing culture medium (same as above). After a couple of days (normally 1-4) of culture, spontaneously contracting areas with cluster of contracting cells (CMLC) occurred and could be visually identified using a light microscope. Medium was changed every second to third day. New spontaneously beating areas continued to appear for up to 20 days post-plating. The clusters are isolated by mechanical dissection under visual inspection using a light microscope from the 3D-structures and subjected to further characterization. […] These were then manually isolated from the surrounding cells and plated onto laminin coated glass. After three days in culture, the clusters were fixed and stained for nuclei and the protein cardiac troponin 1, which is known to be specific for cardiac tissue. These clusters were then examined with confocal microscopy.
CMLC were derived from undifferentiated hBS cells (cell line SA002, LOTAL002, passage 21, 22, 44 and 51) essentially as described in Example 1. […]
The number of contracting CMLC was visually determined at day 6 or 7 after plating of formed 3D structures. […] The effect of the treatment on beating area characteristics was determined in terms of distribution in beating frequency, length, width, calculated area and structure in two experiments; one using plating medium with 20% FBS and one with plating medium containing 2% FBS. […]

[2] = system: spontaneously beating CMLC; assay: Visually registered contraction rate of spontaneously beating CMLC; assay type: cell-based, human; settings: 5 μM
Experimental: FIG. 28. The effect of Zatebradine on the beating frequency of contracting CMLC derived from hBS cells. […] The change in beating frequency was calculated by visually registering the contraction rate before and after Zatebradine administration. Values are expressed as beats per minute±SEM, n=32, ***=p<0.001. Statistical significance was calculated using paired t-test. […] The mRNA expression of HCN4 and Troponin T2 was measured using real-time RT quantitative PCR and related to the expression of the endogenous control CREBBP. Values are expressed as relative gene expression as compared to a reference sample set to 100% (n=32). Statistical analysis was performed using linear regression analysis.
CMLC were derived from undifferentiated hBS cells essentially as described in Example 1 using cell line SA002. Zatebradine is a substance known to block so called funny channels, e.i. hyperpolarization-activated, cyclic nucleotide-gated (HCN) channels 1-4, which are involved in the regulation of cardiomyocyte contraction and cardiac rate. In order to investigate the effect of Zatebradine on CMLC derived from hBS cells and to correlate this effect to age and gene expression, Zatebradine was administered at a concentration of 5 μM to 32 spontaneously beating clusters of different ages. […] Gene expression was quantified using real-time RT quantitative PCR. […]

CNCC(O)c1ccc(O)c(O)c1 (centres unmarked) [Adrenaline]
Effect on contractile activity / contraction frequency [1]: stimulatory effect is registered within minutes

COc1ccc(CCN2CCC(Nc3nc4ccccc4n3Cc3ccc(F)cc3)CC2)cc1 [Astemizol]
Delayed repolarisation of the cardiac field potentials (hERG channel in CMLC; cumulative 0, 100 pM, 1 nM, 10 nM, 100 nM, 1000 nM): selective block and sustained prolongation of the repolarizing component at low nanomolar concentrations
Delayed repolarization of the cardiac field potential (hERG channel in CMLC; hES-CMC cluster on MEA, cumulative 0, 1 nM, 10 nM, 100 nM, 1 μM, 10 μM, FIG. 30): selective block and sustained prolongation of the repolarizing component at nanomolar concentrations

COc1cc(N)c(Cl)cc1C(=O)NC1CCN(CCCOc2ccc(F)cc2)CC1OC (centres unmarked) [Cisapride]
Field action potential duration (indicator of QT prolongation) (hERG channel in CMLC; increasing drug concentrations, FIGS. 5c and 5d): dose dependent prolongation of the action potential

Cc1cccc(CCN2CCC(C(=O)c3ccc(NS(C)(=O)=O)cc3)CC2)n1 [E-4031]
Action potential prolongation (CMLC clusters; 0.5-1 μM E-4031, all CMLC phenotypes): concentration dependent action potential prolongation in all CMLC phenotypes
Average change in percent of APD90 (CMLC clusters; atrial-like CMLC, 0.5 μM E-4031, spontaneous f): 27.27 ± 7.61 (7) %
Average change in percent of APD90 (CMLC clusters; atrial-like CMLC, 1 μM E-4031, spontaneous f): 70.08 ± 25.91 (2) %
Average change in percent of APD90 (CMLC clusters; nodal-like CMLC, 0.5 μM E-4031, spontaneous f): 43.16 ± 21.00 (4) %
Average change in percent of APD90 (CMLC clusters; ventricle-like CMLC, 0.5 μM E-4031, 1 Hz): 34.89 ± 9.83 (4) %
Average change in percent of APD90 (CMLC clusters; ventricle-like CMLC, 0.5 μM E-4031, 2 Hz): 27.92 ± 9.23 (2) %
Average change in percent of APD90 (CMLC clusters; ventricle-like CMLC, 0.5 μM E-4031, spontaneous f): 16.67 ± 10.64 (5) %
Average change in percent of APD90 (CMLC clusters; ventricle-like CMLC, 1 μM E-4031, 1 Hz): 59.33 ± 31.28 (2) %
Average change in percent of APD90 (CMLC clusters; ventricle-like CMLC, 1 μM E-4031, 2 Hz): 38.14 ± 36.85 (3) %

NC[C@H](O)c1ccc(O)c(O)c1 [Noradrenaline]
Effect on contractile activity / contraction frequency [1]: stimulates contractile activity normally in a concentration-response manner

CNC[C@H](O)c1cccc(O)c1 [Phenylephrine]
Effect on contractile activity / contraction frequency [1]: stimulated in a dose-dependent manner

Cn1cc(C2=C(c3ccc(Cl)cc3Cl)C(=O)NC2=O)c2ccccc21 [SB 216763]
Yield of beating CMLC compared to control cultures not receiving additional factors (hBS cells (SA002)): ~3 times

Fc1ccc(-c2nc3n(c2-c2ccncc2)CCS3)cc1 [SKF-86002]
Yield of beating CMLC compared to control cultures not receiving additional factors (hBS cells (SA002)): ~3 times

COc1ccc(CCN(C)CCCN2CCc3cc(OC)c(OC)cc3CC2=O)cc1OC [Zatebradine]
Effect on action potential duration (CMLC clusters; 10 μM Zatebradine, FIG. 21): increased duration
Effect on beating frequency (CMLC clusters; 10 μM Zatebradine, FIG. 21): slowed beating frequency
Beating of some clusters [2]: completely blocked
Decrease of the beating frequency of CMLC, on average ([2]; 32 spontaneously beating clusters of different ages): about 50%

CC(C)NCC(O)COc1ccc(CC(N)=O)cc1 (centres unmarked) [atenolol]
Effect on contractile activity / contraction frequency [1]: stimulatory effect is reduced within minutes

CC(CCc1ccccc1)NCC(O)c1ccc(O)c(C(N)=O)c1 (centres unmarked) [labetolol]
Effect on contractile activity / contraction frequency [1]: reduction in the stimulation of contraction frequency exerted by adrenaline

CC(COc1ccccc1)N(CCCl)Cc1ccccc1 (centres unmarked) [phenoxybenzamine]
Effect on contractile activity / contraction frequency [1]: reduce the contraction frequency

LIF: protein growth factor supplemented at 1000 U/ml post-plating
Yield of beating CMLC (hBS cells (SA002); Activin A and bFGF pre-plating, LIF 1000 U/ml for 4 days post-plating, counted day 7 and day 14): further increased the generation of beating CMLC
Improvement of yield compared to controls that only receive medium (hBS cells (SA002); medium containing Activin A and/or bFGF supplemented with LIF post-plating, FIG. 14): ~2 fold
